From PMC12305494, “Discovery of PXR Antagonist MI891 and PXR Degrader MI1013 and Their Roles in Hepatic Gene Regulation” (Journal of Medicinal Chemistry, 2025)

How the values were obtained:
[1] = target: T1, PXR (Homo sapiens, UniProt O75469); experiment: cell-based; conditions: PXR antagonism: PXR inhibition (IC50, μM), antagonist mode with 10 μM rifampicin; mean ± SD, n = 3
T1 sequence (O75469 1-434): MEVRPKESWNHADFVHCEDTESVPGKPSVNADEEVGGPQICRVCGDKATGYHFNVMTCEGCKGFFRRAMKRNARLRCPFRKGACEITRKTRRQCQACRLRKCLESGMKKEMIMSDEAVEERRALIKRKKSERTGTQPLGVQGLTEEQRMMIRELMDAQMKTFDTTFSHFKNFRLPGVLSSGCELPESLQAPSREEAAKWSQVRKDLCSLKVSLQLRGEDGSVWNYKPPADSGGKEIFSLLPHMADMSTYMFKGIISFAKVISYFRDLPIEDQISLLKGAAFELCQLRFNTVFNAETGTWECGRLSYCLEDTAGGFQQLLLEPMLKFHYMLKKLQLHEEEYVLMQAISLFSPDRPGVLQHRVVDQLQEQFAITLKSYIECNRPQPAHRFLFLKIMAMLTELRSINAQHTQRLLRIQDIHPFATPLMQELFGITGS
Method: The PXR activity was assessed as the PXR-dependent transcriptional activation using the construct. […] The control vector pRL-TK (Promega) constitutively expresses Renilla luciferase. […] Transient transfection experiments followed published protocols used in our laboratory and described before. , Luciferase reporter assays were conducted to evaluate interactions with PXR or CAR and their variants in HepG2, or COS-1. Cells were seeded at a density of 40,000 cells/cm^2 in 48-well plates (ThermoFisher Scientific) and maintained at 37 °C in a humidified atmosphere with 5% CO2. […] Following seeding, HepG2 cells were transfected with 150 ng/well of a luciferase reporter construct and 100 ng/well of a nuclear receptor expression vector using Lipofectamine 3000 (ThermoFisher Scientific) and with pRL-TK (30 ng/well) serving as the normalization control. After 24 h, cells were treated with test compounds for 24 h before cell lysis and subsequent firefly and Renilla luciferase activity analysis using the Dual-Glo Luciferase Assay System (Promega). […] The activities of test compounds were normalized to the respective controls to determine % activation or inhibition.

[2] = target: T2, human CAR LBD (Homo sapiens, UniProt Q14994); experiment: LanthaScreen TR-FRET CAR Coactivator assay; type: biochemical; conditions: nb = no binding
T2 sequence (Q14994 103-352): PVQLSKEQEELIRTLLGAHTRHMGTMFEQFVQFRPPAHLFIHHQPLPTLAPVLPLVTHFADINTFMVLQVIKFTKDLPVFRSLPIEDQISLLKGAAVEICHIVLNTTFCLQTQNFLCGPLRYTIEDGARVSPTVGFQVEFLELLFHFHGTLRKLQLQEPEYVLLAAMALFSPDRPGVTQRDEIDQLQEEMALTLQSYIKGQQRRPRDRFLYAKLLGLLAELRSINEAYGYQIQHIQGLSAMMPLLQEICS
Method: We utilized the LanthaScreen TR-FRET CAR Coactivator Binding Assay Kit, goat (Thermo Fisher Scientific, Cat. No. PV4836), which includes GST-tagged human CAR LBD and a fluorescein-labeled PGC1α coactivator peptide. The assay was performed with slight modifications to the manufacturer’s protocol, as previously reported. […] The interaction with the PXR ligand-binding domain (LBD) was assessed using the LanthaScreen TR-FRET PXR Competitive Binding Assay (Thermo Fisher Scientific, PV4839), as previously described. This assay quantifies the ability of test compounds to displace a fluorescent PXR ligand from the receptor. Fluorescence readings were taken on a Synergy 2 Multi-Mode Microplate Reader (BioTek, Winooski, VT). The half-maximal inhibitory concentration (IC50) for PXR LBD was calculated from at least eight data points using GraphPad Prism software.

[3] = target: T3, human CAR LBD (Homo sapiens, UniProt Q14994); experiment: CAR LBD assembly assay (CAR AA); type: cell-based; conditions: na = no activity; tox = cytotoxicity in HepG2 cells
T3 construct: constructs encoding helices 3–12 and helix 1 of human CAR LBD; expressed in transfected cells; host or cells: HepG2
T3 sequence (Q14994 103-150 isoform Q14994-2 limits assumed): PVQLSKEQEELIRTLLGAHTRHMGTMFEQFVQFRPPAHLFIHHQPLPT
T3 sequence (Q14994 151-348 isoform Q14994-2 limits assumed): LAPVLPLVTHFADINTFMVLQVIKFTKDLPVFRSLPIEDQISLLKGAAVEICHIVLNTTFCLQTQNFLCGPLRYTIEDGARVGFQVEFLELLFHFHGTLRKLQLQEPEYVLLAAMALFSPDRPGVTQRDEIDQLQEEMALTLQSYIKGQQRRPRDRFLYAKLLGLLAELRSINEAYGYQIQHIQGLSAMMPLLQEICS
Description: The CAR LBD assembly assay used constructs encoding helices 3–12 and helix 1 of human CAR LBD as described before. GL4.31[luc2P/GAL4UAS/Hygro] (pGAL4 UAS-luc) luciferase reporter vector and pRL-TK Renilla expression vector (Promega) were used in the assay in HepG2 cells transfected using Lipofectamine 3000.

[4] = target: T1, PXR; experiment: PXR-responsive CYP3A4 promoter luciferase reporter assay in HepG2, inverse agonist mode (basal activity); type: cell-based; set-up: expressed in transfected cells; host or cells: HepG2; conditions: tested at 10 μM, DMSO (0.1%) = 100% basal activity
Method: Rhesus monkey, mouse, and rat PXR expression vectors (100 ng/well each) were also obtained from GenScript. […] Carlberg (University of Kuopio, Kuopio, Finland).
The cells were cultured in DMEM medium (Merck) supplemented with 10% fetal bovine serum.

[5] = target: T4, PXR (Homo sapiens, UniProt O75469+Q96SW2); experiment: Western blot of PXR in differentiated HepaRG cells; type: cell-based; conditions: 24 h
T4 construct: differentiated hepatic HepaRG cells, which naturally express high PXR activity and expression; endogenous in cells; host or cells: differentiated HepaRG
T4 sequence (Q96SW2 whole entry, one chain of several): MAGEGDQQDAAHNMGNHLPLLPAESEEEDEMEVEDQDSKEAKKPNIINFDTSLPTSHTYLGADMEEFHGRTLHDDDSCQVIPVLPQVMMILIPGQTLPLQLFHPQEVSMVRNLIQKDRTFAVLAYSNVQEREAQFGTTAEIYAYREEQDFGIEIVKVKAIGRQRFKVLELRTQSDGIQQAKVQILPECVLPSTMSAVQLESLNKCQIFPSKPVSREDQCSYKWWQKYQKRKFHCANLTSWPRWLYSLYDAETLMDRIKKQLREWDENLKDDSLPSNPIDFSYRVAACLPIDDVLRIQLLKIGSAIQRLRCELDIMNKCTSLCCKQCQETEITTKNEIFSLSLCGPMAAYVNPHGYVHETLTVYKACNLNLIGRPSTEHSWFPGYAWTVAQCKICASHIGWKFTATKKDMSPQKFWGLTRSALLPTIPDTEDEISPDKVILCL
Method: The harvested HepaRG cells were lysed in RIPA lysis buffer (Cat. no 89900, Thermo Scientific) containing Halt protease inhibitor cocktail inhibitors (Thermo Scientific). Protein concentration was measured using the Pierce BCA Protein Assay Kit (Cat. no. 23225, Thermo Scientific), samples were diluted in 4 × Laemmli sample buffer (Cat. no. 1610747, BioRad) supplemented with mercaptoethanol and heated at 95 °C for 5 min. Equal amounts of protein were loaded in 4–20% Mini-PROTEAN TGX Stain-Free Protein Gels (12 well. cat. no. 4561095 or 15 well, cat. no. 4568096, Bio-Rad), electrophorised, and transferred onto Trans-Blot Turbo Midi-size PVDF Membrane (cat. no. 1704273, Bio-Rad), and blocked with EveryBlot Blocking buffer for 10 min (cat. no. 12010020, Bio-Rad). The membranes were incubated overnight at 4 °C with the following antibodies: PXR polyclonal antibody (1:500, PA5–41170, Invitrogen), RXRA polyclonal antibody (1:1000, 21218–1-AP, Proteintech), and GSPT1 polyclonal antibody (1:1000, 10763-a-AP, Proteintech), washed with TBS-T for 3 times, and followed by incubation with goat antirabbit IgG (H + L) Secondary antibody, HRP (1:200, 000, 1 h, cat. no. 31460, Invitrogen). Chemiluminescence signals were detected using SuperSignal West Femto Maximum Sensitivity Substrate (cat. no. 34096, Thermo Scientific) and visualized by the ChemiDoc MP Imaging system (Universal Hood III, #731BR02821, Bio-Rad), and the bands were quantified using β-actin (1:2000, recombinant rabbit conjugated monoclonal antibody (JF53-10), cat. no. MA5-32540, Invitrogen) as loading control with ImageJ (version 1.54g) software.

[6] = Plasma stability, mouse plasma; type: in vitro ADME; conditions: up to 120 min, read-out: Plasma stability, t1/2 (min), mouse
Method: The protocols and reagents for the plasma protein binding assay and metabolic stability testing in human and mouse liver microsomes are detailed in our previous report. Briefly, metabolic stability of compounds was assessed at a single concentration (5 μM) at t = 0, 10, 30, and at t = 45 min. The stability of compounds was tested in human and mouse microsomes (ThermoFisher Scientific). Compounds were tested in triplicate with or without NADPH wells as a negative control for cytochrome P450 metabolism. In addition to hepatic metabolism, compounds were also subjected to degradation/modification by enzymes in human (VWR International) and mouse (Biomedica, CZ) plasma for t = 0, 30, 60, and at t = 120 min. Each assay included a substrate with known activity as a positive control. Time points were analyzed by LC/MS/MS. The peak area for the parent compound is compared to the time zero sample in order to assess the amount of remaining compound.

Row | Molecule | IC50 [1] | EC50 [3] | other results
1 | CC(c1ccc(Cl)c(C(N)=O)c1)n1cc(-c2c(-c3ccc(Cl)cc3)nc3ccccn23)nn1 (centres unmarked) [Compound 2, 2-Chloro-5-(1-(4-(2-(4-chlorophenyl)imidazo[1,2-a]pyridin-3-yl)-1H-1,2,3-triazol-1-yl)ethyl)benzamide] | 25.4 ± 3.5 µM | 5.3 ± 0.3 µM | EC50 [2]: > 5 µM
2 | NC(=O)c1cc(Cn2cc(-c3c(-c4ccncc4)nc4ccccn34)nn2)ccc1Cl [Compound 3, 2-Chloro-5-((4-(2-(pyridine-4-yl)imidazo[1,2-a]pyridine-3-yl)-1H-1,2,3-triazol-1-yl)methyl)benzamide] | > 100 µM | – | CAR TR-FRET (EC50, μM) [2]: nb
3 | NC(=O)c1cc(Cn2cc(-c3c(-c4ccc(C5CC5)cc4)nc4ccccn34)nn2)ccc1Cl [Compound 4, 2-Chloro-5-((4-(2-(4-cyclopropylphenyl)imidazo[1,2-a]pyridin-3-yl)-1H-1,2,3-triazol-1-yl)methyl)benzamide] | 5.76 ± 2.6 µM | > 20 µM | CAR TR-FRET (EC50, μM) [2]: nb
4 | CNC(=O)c1cc(Cc2nnc(-c3c(-c4ccc(Cl)cc4)nc4ccccn34)o2)ccc1Cl [Compound 5, 2-Chloro-5-((5-(2-(4-chlorophenyl)imidazo[1,2-a]pyridin-3-yl)-1,3,4-oxadiazol-2-yl)methyl)-N-methylbenzamide] | > 100 µM | 1.02 ± 0.2 µM | EC50 [2]: 0.401 µM
5 | CNC(=S)c1cc(Cc2nnc(-c3c(-c4ccc(Cl)cc4)nc4ccccn34)o2)ccc1Cl [Compound 6, 2-Chloro-5-((5-(2-(4-chlorophenyl)imidazo[1,2-a]pyridin-3-yl)-1,3,4-oxadiazol-2-yl)methyl)-N-methylbenzothioamide] | > 100 µM | 0.99 ± 0.15 µM | EC50 [2]: 0.162 µM
6 | CN(C)C(=O)c1cc(Cc2nnc(-c3c(-c4ccc(Cl)cc4)nc4ccccn34)s2)ccc1Cl [Compound 7, 2-Chloro-5-((5-(2-(4-chlorophenyl)imidazo[1,2-a]pyridin-3-yl)-1,3,4-thiadiazol-2-yl)methyl)-N,N-dimethylbenzamide] | 4.94 ± 0.9 µM | 0.5 ± 0.01 µM | –
7 | NC(=O)c1cc(Cn2cc(-c3c(-c4ccc(Cl)cc4)nc4cc(F)ccn34)nn2)ccc1Cl [Compound 9, 2-Chloro-5-((4-(2-(4-chlorophenyl)-7-fluoroimidazo[1,2-a]pyridin-3-yl)-1H-1,2,3-triazol-1-yl)methyl)benzamide] | – | – | PXR inverse agonism: decrease of basal activity in % [4]: (-72.03±0.3) %; PXR inverse agonism: decrease of basal activity in % ([4]; listed as 9 (MI-883)): –72.03 ± 0.3%
8 | CNC(=O)c1cc(Cn2cc(-c3c(-c4ccc(Cl)cc4)nc4c(F)cc(F)cn34)nn2)ccc1Cl [Compound 12, 2-Chloro-5-((4-(2-(4-chlorophenyl)-6,8-difluoroimidazo[1,2-a]pyridin-3-yl)-1H-1,2,3-triazol-1-yl)methyl)-N-methylbenzamide] | 8.04 ± 2.3 µM | – | CAR TR-FRET (EC50, μM) [2]: nb
9 | COc1ccc(OC)c(-n2nnc(S(=O)(=O)c3ccc(NC(=O)CCOCCOCCOCCOCCn4cc(CNc5cccc6c5C(=O)N(C5CCC(=O)NC5=O)C6=O)nn4)cc3)c2C)c1 (centres unmarked) [Compound 37, N-(4-((1-(2,5-dimethoxyphenyl)-5-methyl-1H-1,2,3-triazol-4-yl)sulfonyl)phenyl)-1-(4-(((2-(2,6-dioxopiperidin-3-yl)-1,3-dioxoisoindolin-4-yl)amino)methyl)-1H-1,2,3-triazol-1-yl)-3,6,9,12-tetraoxapentadecan-15-amide] | – | – | PXR degradation (Western blot) [5]: mild effect on PXR degradation
10 | CC(C)[N+](C)(CCOC(=O)C1c2ccccc2Oc2ccccc21)C(C)C [Propantheline, reference compound] | – | – | half-life [6]: 28 ± 1 min
11 | N-(4-((1-(2,5-Dimethoxyphenyl)-5-methyl-1H-1,2,3-triazol-4-yl)sulfonyl)phenyl)-3-(2-(2-(4-(((2-(2,6-dioxopiperidin-3-yl)-1,3-dioxoisoindolin-4-yl)amino)methyl)-1H-1,2,3-triazol-1-yl)ethoxy)ethoxy)propenamide [Compound 35] | – | – | PXR degradation (Western blot) [5]: no effect on PXR degradation
